Earlier results on eight molecules are cited in US20080181955A1, “Natural dietary supplement and method for enhancing human libido” (priority 2007, published 2008).

Series [1] relates to human endothelial NO synthase. As to conditions: polyphenolic constituents of red wine.
The conditions of series [2]: oral.
The next series addresses PDE-5 (Homo sapiens, UniProt O76074). To be noted: resveratrol alone.
For the next series, the system named is nitric oxide (NO). As to conditions: resveratrol alone.

Consider `O=C(O)/C=C/c1ccc(O)cc1` [p-coumaric acid], for which the eNOS expression entry in series [1] is reported as “enhanced eNOS expression moderately”. In the case of `CN1CC(=O)N2[C@H](c3ccc4c(c3)OCO4)c3[nH]c4ccccc4c3C[C@@H]2C1=O` [Tadalafil, tadalafil], in series [2], the half-life result is recorded as “about 17.5 hours”. For the molecule `Oc1ccc(/C=C/c2cc(O)cc(O)c2)cc1` [trans-resveratrol], the eNOS expression result in series [1] was “most efficacious stimulator of eNOS expression”. As to `COc1cc(C(=O)O)ccc1O` [vanilla acid], the eNOS expression entry in series [1] is listed as “enhanced eNOS expression moderately”. Turning to `O=C(O)c1ccccc1` [benzoic acid], the eNOS expression result in series [1] is listed as “enhanced eNOS expression moderately”. In the case of `O=C(O)/C=C/c1ccc(O)c(O)c1` [caffeic acid], the eNOS expression entry in series [1] is given as “enhanced eNOS expression moderately”. For `CCCc1nn(C)c2c(=O)[nH]c(-c3cc(S(=O)(=O)N4CCN(C)CC4)ccc3OCC)nc12` [Sildenafil, sildenafil], the half-life entry in series [2] is recorded as “about 4 hours”. Regarding `Oc1ccc(C=Cc2cc(O)cc(O)c2)cc1` [resveratrol], the “effect on PDE-5” value on PDE-5 is “no recognizable effect on PDE-5”. Besides, the “release of NO” value in the series with nitric oxide (NO) is reported as “releases NO”.
